Experimental data taken from US10588906B2, “Method of preventing hair loss or promoting hair growth by using phosphodiesterase 3 inhibitor” (SEOUL NATIONAL UNIVERSITY HOSPITAL, priority 2017, dated 2020).

Tests used:
[1] = tested on: human hair follicle-derived hair dermal papilla cells (hDPCs); assay: BrdU assay of cell division of hDPCs; format: cell-based; conditions: 0 μM to 10 μM, 48 hours, versus negative control, FIG. 1
Procedure: To evaluate the effect of PDE on the proliferation of hair follicle cells, human hair follicle-derived hDPCs were treated with cilostazol, cilostamide, trequinsin, or milrinone, which are well-known PDE 3 inhibitors, and then subjected to a BrdU assay.
First, primarily cultured hDPCs were treated with cilostazol, cilostamide, trequinsin, or milrinone at a concentration of 0 μM to 10 μM, cultured for 44 hours, treated with a BrdU reagent, and then allowed to react for 4 hours. After culturing for a total of 48 hours, the presence or absence of luminescence was measured using a luminometer for detecting BrdU, and cell division and activation degrees of the hDPCs were identified by comparison with a negative control.

ERK signaling pathway = assay: Western blotting of ERK phosphorylation in hDPCs; format: cell-based, human; conditions: 1 μM, within 15 minutes, FIG. 2
Procedure: To identify the effects of PDE 3 inhibitors on an ERK signaling pathway, which is a key cell proliferation-associated signaling pathway, human hDPCs were treated with cilostazol, cilostamide, trequinsin, or milrinone at a concentration of 1 μM for 0 minute, 5 minutes, 15 minutes, and 60 minutes, and western blotting was performed thereon.

human hair follicles [2] = assay: Ki-67 immunofluorescence staining of cultured hair follicles; conditions: cultured for two days, FIG. 3B
Procedure: In addition, to identify cell proliferation of the cultured hair follicles through the test, immunofluorescence staining was performed using antibodies against Ki-67, which is a cell division marker. The hair follicles were treated with cilostazol, cultured for two days, and made into a tissue section, the tissue section was cut to a thickness of 4 μm and fixed on a slide, followed by reaction with Ki-67 treated with primary antibodies and treatment with secondary antibodies with green fluorescence capable of detecting Ki-67, and then the resulting section was observed using a fluorescence microscope and photographed, and the number of Ki-67 positive cells was identified. In addition, the nuclei of the hair follicles was stained using a DAPI reagent.

[3] = tested on: angiogenesis around hair follicles; assay: CD31 immunofluorescence staining for angiogenesis around hair follicles; format: in vivo; conditions: mouse skin tissue
Procedure: To verify the effect of a PDE 3 inhibitor on angiogenesis around hair follicles, immunofluorescence staining with CD31, which is a blood vessel marker protein, was performed. More particularly, mouse skin tissue of a negative control and mouse skin tissue on which cilostazol was applied were rapidly cryotreated and prepared into blocks, and then each block was cut into a tissue section having a thickness of 15 μm using a cryotome and immobilized on a slide. In addition, each tissue section was allowed to react with antibodies against CD31, which is a blood vessel marker protein, as primary antibodies, and then treated with secondary antibodies with green fluorescence capable of detecting CD31, and the resulting tissue sections were observed using a fluorescence microscope and photographed, and the area of blood vessels was measured using an image analysis program.

[4] = tested on: MAPK-associated proteins (ERK, JNK, P-38); assay: Western blotting of MAPK-associated signaling proteins in mouse skin tissue; format: in vivo; conditions: mouse skin tissue after anagen induction experiment, FIG. 6
Procedure: To verify the effect of a PDE 3 inhibitor on a MAPK-associated signaling pathway, which is a cell proliferation-associated signaling pathway, western blotting was performed using mouse skin tissue.

human hair follicles [5] = assay: Ex vivo hair follicle organ culture test; conditions: 1 μM or 10 μM, day 2, 4 and 6, versus negative control, FIG. 3A
Procedure: To evaluate the effects of PDE 3 inhibitors on human hair follicle growth, an ex vivo hair follicle organic culture test was performed using cilostazol. More particularly, to conduct the ex vivo hair follicle organic culture test, scalp tissues obtained from volunteers were divided into follicular units, and parts below sebaceous glands of the divided hair follicles were cut off and the remaining parts of the hair follicles were used. The prepared hair follicles were cultured in a culture medium containing a negative control reagent or 1 μM or 10 μM cilostazol, the length of hair growing on day 2, day 4, and day 6 was measured, and then a hair growth promotion effect of the human hair follicles was identified by comparison with a negative control.

C57BL/6 mice = assay: Anagen induction test in C57BL/6 mouse model; format: in vivo; conditions: 0.2 wt % or 1 wt % applied once a day for three weeks
Description: To identify hair growth effects by PDE 3 inhibitors, an anagen induction effect was examined using a C57BL/6 mouse model. Although the hair cycle of human hair varies depending on individuals, mice have the same hair cycle at an initial stage and all hairs enter into a telogen phase 7 weeks to 8 weeks after birth, which then turns into an anagen phase. To evaluate an anagen induction effect using these characteristics of mice, dorsal hairs of 8-week-old C57BL/6 mice in the telogen phase were removed, 0.2 wt % or 1 wt % of cilostazol was applied thereon once a day for three weeks, and then through comparison with a negative control and the case of 2 wt % of minoxidil as a positive control, the presence or absence of hair growth and an anagen induction degree were identified. In addition, skin tissue from which anagen hair grew was fixed with paraffin and stained with hematoxylin and eosin to conduct a histological examination, and the results thereof are shown in FIG. 5.

## CN(C(=O)CCCOc1ccc2[nH]c(=O)ccc2c1)C1CCCCC1 [cilostamide]
[1]
  cell division of the hDPCs (BrdU): significantly increased
ERK signaling pathway
  phosphorylation of intracellular ERK proteins: increased

## O=C1CCc2cc(OCCCCc3nnnn3C3CCCCC3)ccc2N1 [cilostazol]
[1]
  cell division of the hDPCs (BrdU): significantly increased
Human hair follicles [2]
  cell division in the human hair follicles (Ki-67 positive cells): increased
[3]; FIG. 7A
  angiogenesis (CD31 staining): induced
[3]; image analysis, FIG. 7B
  area of blood vessels: increased
ERK signaling pathway
  phosphorylation of intracellular ERK proteins: increased
[4]
  phosphorylation of the MAPK-associated signaling proteins (ERK, JNK, P-38): increased
Human hair follicles [5]
  hair growth of the human hair follicles (length of hair): promoted hair growth
C57BL/6 mice; FIG. 4
  proportion of a site on which anagen hair grew: significantly increased
C57BL/6 mice; FIG. 5A
  formation of hair follicles (hematoxylin and eosin histology): promoted
C57BL/6 mice; FIG. 5B
  anagen induction score: increases
C57BL/6 mice; FIG. 5C
  skin thickness: increases

## Cc1[nH]c(=O)c(C#N)cc1-c1ccncc1 [milrinone]
[1]
  cell division of the hDPCs (BrdU): significantly increased
ERK signaling pathway
  phosphorylation of intracellular ERK proteins: increased

## COc1cc2c(cc1OC)-c1c/c(=N\c3c(C)cc(C)cc3C)n(C)c(=O)n1CC2 [trequinsin]
[1]
  cell division of the hDPCs (BrdU): significantly increased
ERK signaling pathway
  phosphorylation of intracellular ERK proteins: increased
